Broadly, the IC50 is the concentration that inhibits the measured activity by half. Broadly, the inhibition is the share of the control response that was lost under treatment.

Active and inactive are the calls of the source. No cut-off for these calls is given here. A value given as a limit tells only on which side of the number the result lay.

Experiment [1] deals with T1, Acetylcholinesterase (Homo sapiens, UniProt P22303).
The target in experiment [2] is T1, Acetylcholinesterase. The conditions noted are these: at 0.1 mg/mL.
Experiment [3] deals with T1, Acetylcholinesterase. As to the kind of experiment: Inhibition of AChE (unknown origin) at 10 mg/ml after 20 min by TLC bioautographic assay.

T1 sequence (P22303 whole entry): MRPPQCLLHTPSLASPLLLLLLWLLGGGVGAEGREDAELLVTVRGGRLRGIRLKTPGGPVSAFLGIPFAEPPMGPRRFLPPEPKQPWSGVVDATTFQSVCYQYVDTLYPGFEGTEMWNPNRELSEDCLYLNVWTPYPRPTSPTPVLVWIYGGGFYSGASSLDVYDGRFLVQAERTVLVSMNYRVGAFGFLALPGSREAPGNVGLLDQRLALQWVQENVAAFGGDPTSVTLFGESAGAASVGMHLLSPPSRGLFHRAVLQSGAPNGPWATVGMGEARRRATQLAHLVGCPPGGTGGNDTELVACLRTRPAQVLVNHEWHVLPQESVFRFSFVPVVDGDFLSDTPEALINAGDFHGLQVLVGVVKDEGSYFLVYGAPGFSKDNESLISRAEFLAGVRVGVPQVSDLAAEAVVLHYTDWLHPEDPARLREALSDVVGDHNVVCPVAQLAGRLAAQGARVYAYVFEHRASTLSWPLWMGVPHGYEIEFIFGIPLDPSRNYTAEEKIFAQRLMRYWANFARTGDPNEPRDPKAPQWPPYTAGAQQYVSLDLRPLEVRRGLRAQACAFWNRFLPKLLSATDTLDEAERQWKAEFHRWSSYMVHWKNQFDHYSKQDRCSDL

As for `COc1cccc2c3c(c(=O)n(C)c12)[C@@H](O)[C@H](O)C(C)(C)O3` (relative stereo) [REL-ZANTHODIOLINE], on Acetylcholinesterase [1], the IC50 result is given as “Not Active”. For the same molecule, the inhibition at Acetylcholinesterase [2] is 34.4%.

Take `COc1cc2oc(=O)ccc2c(OC)c1OC` [5,6,7-TRIMETHOXYCOUMARIN]: at Acetylcholinesterase [1] (read-out: IC50 (converted)), the half-maximal inhibitory concentration (IC50) is above 423 µM. The inhibition against Acetylcholinesterase [2] was 49.7%.

With `COc1c(C[C@H](C)C(C)(C)O)c(=O)n(C)c2ccccc12` [(-)-(S)-EDULININE], at Acetylcholinesterase [1], the IC50 result is on record as “Not Active”. The inhibition against Acetylcholinesterase [2] was 19.4%.

With `COc1c2ccccc2nc2occc12` [DICTAMNINE], the IC50 result against Acetylcholinesterase [1] is “Not Active”. This molecule returned an inhibition against Acetylcholinesterase [2] of 12.6%.

Consider `COc1cc(=O)[nH]c2c(OC)cccc12` [EDULITINE], for which the IC50 at Acetylcholinesterase [1] (read-out: IC50 (converted)) was above 487 µM. At Acetylcholinesterase [2], this molecule showed an inhibition of 45.1%.

`COc1c2ccoc2nc2c(OC)cccc12` [GAMMA-FAGARINE]: the IC50 entry against Acetylcholinesterase [1] is “Not Active”. At Acetylcholinesterase [2], this molecule displayed an inhibition of 24.3%.

For the molecule `COc1c2[nH]c3occc3c(OC)c-2ccc1=O` [HAPLOPINE], on Acetylcholinesterase [1] (read-out: IC50 (converted)), the IC50 was above 408 µM. The same molecule yielded an inhibition at Acetylcholinesterase [2] of 51.9%.

For `COc1ccc(C(=O)[C@@H]2CO[C@H](c3ccc4c(c3)OCO4)[C@H]2CO)cc1OC` [MAGNOLONE], the IC50 entry on Acetylcholinesterase [1] is “Not Active”. The inhibition on Acetylcholinesterase [2] stood at 9.9%.

For the molecule `COc1ccc2c(OC)c3ccoc3nc2c1OC` [SKIMMIANINE], the IC50 on Acetylcholinesterase [1] (read-out: IC50 (converted)) is 33.2 µM. In addition, the inhibition entry on Acetylcholinesterase [3] was “Active”. Moreover, the inhibition against Acetylcholinesterase [2] turned out to be 91.3%.

As for `COc1cc2oc(=O)ccc2c(OC)c1C[C@@H](O)C(C)(C)O` [TODDALOLACTONE], the IC50 entry against Acetylcholinesterase [1] is listed as “Not Active”. On Acetylcholinesterase [2], the inhibition was found to be 33.9%.

The values are drawn from ChEMBL document CHEMBL3046928, “Skimmianine, a furoquinoline alkaloid from Zanthoxylum nitidum as a potential acetylcholinesterase inhibitor” (Med Chem Res, 2012).
